# Measurements published in patent US8138168B1 (Takeda Pharmaceutical Company Limited, priority 2007, dated 2012).
# Target: T1, Recombinant human renin (Homo sapiens, UniProt P00797)
# T1 construct: isolate the active form (residues 67-406); made in house; host or cells: FreeStyle 293-F cells (transient expression of pcDNA3.1(+)/hREN)
# T1 sequence (P00797 67-406): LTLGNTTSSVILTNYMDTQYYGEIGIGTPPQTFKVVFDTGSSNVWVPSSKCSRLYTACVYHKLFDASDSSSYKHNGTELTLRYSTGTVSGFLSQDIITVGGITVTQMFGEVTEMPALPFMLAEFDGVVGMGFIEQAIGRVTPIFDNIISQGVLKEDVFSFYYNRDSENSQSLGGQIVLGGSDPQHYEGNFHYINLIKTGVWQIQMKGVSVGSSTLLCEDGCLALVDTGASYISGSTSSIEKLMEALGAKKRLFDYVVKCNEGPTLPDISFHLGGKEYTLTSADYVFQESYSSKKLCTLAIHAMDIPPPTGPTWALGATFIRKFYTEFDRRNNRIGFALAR
# Assay: In vitro enzymatic activity assay of renin inhibitors (fluorogenic peptide substrate)
# Type: biochemical
# Conditions: read-out: IC50 of Exemplified Compounds Against Renin
# Procedure: Test compounds in varying concentrations may be reacted with recombinant human renin in the presence of substrate, e.g., QXL520-γ-Abu-[…](HiLyteFluo488)-Arg-OH (Anaspec, San Jose, Calif.). […] Inhibition constants (IC50) may be calculated by non-linear curve fitting of the compound concentrations and fluorescence intensities to the standard IC50 equation.
# Solutions of test compounds in varying concentrations mM final concentration) are prepared in dimethyl sulfoxide (DMSO) and then diluted into assay buffer comprising 50 mM Hepes, 1 mM EDTA, 1 mM DTT, 0.1 mg/mL BSA, 0.01% Brij35, pH 7.4. Alternatively, the assay can be performed with a high BSA concentration, wherein the buffer contains an additional 2% BSA.
# Recombinant human renin (3 nM final concentration) is added to the dilutions and pre-incubated with the compounds for 10 minutes at 37° C. […] After pre-incubation, the reaction is initiated with of substrate QXL520-γ-Abu-[…](HiLyteFluo488)-Arg-OH (Anaspec, San Jose, Calif.). The final DMSO in the assay is 5%. The total volume of the reaction mixture is 20 μL, which can be placed on Greiner 384-well small volume plates.
# The fluorescence intensity is determined upon the addition of substrate and determined again after incubation at 37° C. for one hour. The fluorescence intensity of a blank (no inhibition) using vehicle alone is also determined. Renin activity is linearly proportional to the change in fluorescence observed (final-initial).
row,Structure (SMILES),IC50 [µM]
1,"N[C@H](CCc1ccccc1)CC(=O)N1CCCC(c2nc3ccccc3[nH]2)C1 (stereo partly drawn) [Compound 32, (3R)-1-(3-(1H-benzo[d]imidazol-2-yl)piperidin-1-yl)-3-amino-5-phenylpentan-1-one]",> 1
2,"N[C@@H](CC(=O)N1CCCC(c2nc3ccccc3[nH]2)C1)c1ccc([N+](=O)[O-])cc1 (stereo partly drawn) [Compound 33, (3S)-1-(3-(1H-benzo[d]imidazol-2-yl)piperidin-1-yl)-3-amino-3-(4-nitrophenyl)propan-1-one]",> 1
3,"N[C@@H](CC(=O)N1CCCC(c2nc3ccccc3[nH]2)C1)Cc1ccc(Br)cc1 (stereo partly drawn) [Compound 34, (3R)-1-(3-(1H-benzo[d]imidazol-2-yl)piperidin-1-yl)-3-amino-4-(4-bromophenyl)butan-1-one]",> 1
4,"N[C@@H](CC(=O)N1CCCC(c2nc3ccccc3[nH]2)C1)c1ccc(Cl)cc1Cl (stereo partly drawn) [Compound 35, (3S)-1-(3-(1H-benzo[d]imidazol-2-yl)piperidin-1-yl)-3-amino-3-(2,4-dichlorophenyl)propan-1-one]",> 1
5,"N[C@@H](CC(=O)N1CCCC(c2nc3ccccc3[nH]2)C1)Cc1ccc(Cl)c(Cl)c1 (stereo partly drawn) [Compound 36, (3R)-1-(3-(1H-benzo[d]imidazol-2-yl)piperidin-1-yl)-3-amino-4-(3,4-dichlorophenyl)butan-1-one]",> 1
6,"N[C@@H](CC(=O)N1CCCC(c2nc3ccccc3[nH]2)C1)c1cccc(Cl)c1Cl (stereo partly drawn) [Compound 37, (3S)-1-(3-(1H-benzo[d]imidazol-2-yl)piperidin-1-yl)-3-amino-3-(2,3-dichlorophenyl)propan-1-one]",> 1
7,"N[C@@H](CC(=O)N1CCCC(c2nc3ccccc3[nH]2)C1)Cc1cccc2ccccc12 (stereo partly drawn) [Compound 38, (3R)-1-(3-(1H-benzo[d]imidazol-2-yl)piperidin-1-yl)-3-amino-4-(naphthalen-1-yl)butan-1-one]",> 1
8,"N[C@@H](CC(=O)N1CCCC(c2nc3ccccc3[nH]2)C1)Cc1ccc([N+](=O)[O-])cc1 (stereo partly drawn) [Compound 39, (3R)-1-(3-(1H-benzo[d]imidazol-2-yl)piperidin-1-yl)-3-amino-4-(4-nitrophenyl)butan-1-one]",> 1
9,"N[C@@H](CC(=O)N1CCCC(c2nc3ccccc3[nH]2)C1)c1cccc([N+](=O)[O-])c1 (stereo partly drawn) [Compound 40, (3S)-1-(3-(1H-benzo[d]imidazol-2-yl)piperidin-1-yl)-3-amino-3-(3-nitrophenyl)propan-1-one]",> 1
10,"N[C@@H](CC(=O)N1CCCC(c2nc3ccccc3[nH]2)C1)c1cccc(Br)c1 (stereo partly drawn) [Compound 41, (3S)-1-(3-(1H-benzo[d]imidazol-2-yl)piperidin-1-yl)-3-amino-3-(3-bromophenyl)propan-1-one]",> 1
11,"Cc1ccccc1C[C@@H](N)CC(=O)N1CCCC(c2nc3ccccc3[nH]2)C1 (stereo partly drawn) [Compound 42, (3R)-1-(3-(1H-benzo[d]imidazol-2-yl)piperidin-1-yl)-3-amino-4-o-tolylbutan-1-one]",> 1
12,"Cc1cccc(C[C@@H](N)CC(=O)N2CCCC(c3nc4ccccc4[nH]3)C2)c1 (stereo partly drawn) [Compound 43, (3R)-1-(3-(1H-benzo[d]imidazol-2-yl)piperidin-1-yl)-3-amino-4-m-tolylbutan-1-one]",> 1
13,"N[C@@H](CC(=O)N1CCCC(c2nc3ccccc3[nH]2)C1)Cc1ccc2ccccc2c1 (stereo partly drawn) [Compound 44, (3R)-1-(3-(1H-benzo[d]imidazol-2-yl)piperidin-1-yl)-3-amino-4-(naphthalen-2-yl)butan-1-one]",> 1
14,"O=C(C1CCCN1)N1CCCC(c2nc3ccccc3[nH]2)C1 (centres unmarked) [Compound 45, (3-(1H-benzo[d]imidazol-2-yl)piperidin-1-yl)(pyrrolidin-2-yl)methanone]",> 1
15,"CC(C)C[C@H](N)C(=O)N1CCCC(c2nc3ccccc3[nH]2)C1 (stereo partly drawn) [Compound 46, (2S)-1-(3-(1H-benzo[d]imidazol-2-yl)piperidin-1-yl)-2-amino-4-methylpentan-1-one]",> 1
16,"CC(C)[C@H](N)C(=O)N1CCCC(c2nc3ccccc3[nH]2)C1 (stereo partly drawn) [Compound 47, (2S)-1-(3-(1H-benzo[d]imidazol-2-yl)piperidin-1-yl)-2-amino-3-methylbutan-1-one]",> 1
17,"CC[C@H](C)[C@H](N)C(=O)N1CCCC(c2nc3ccccc3[nH]2)C1 (stereo partly drawn) [Compound 48, (2S,3S)-1-(3-(1H-benzo[d]imidazol-2-yl)piperidin-1-yl)-2-amino-3-methylpentan-1-one]",> 1
18,"O=C([C@@H]1CCCN1C1CCNCC1)N1CCCC(c2nc3ccccc3[nH]2)C1 (stereo partly drawn) [Compound 49, (3-(1H-benzo[d]imidazol-2-yl)piperidin-1-yl)((S)-1-(piperidin-4-yl)pyrrolidin-2-yl)methanone]",> 1

row,Structure (SMILES),IC50 [µM]
1,"C[C@@H](N)C(=O)N1CCCC(c2nc3ccccc3[nH]2)C1 (stereo partly drawn) [Compound 50, (2R)-1-(3-(1H-benzo[d]imidazol-2-yl)piperidin-1-yl)-2-aminopropan-1-one]",> 1
2,"CC[C@@H](N)C(=O)N1CCCC(c2nc3ccccc3[nH]2)C1 (stereo partly drawn) [Compound 51, (2R)-1-(3-(1H-benzo[d]imidazol-2-yl)piperidin-1-yl)-2-aminobutan-1-one]",> 1
3,"O=C(C1CCCNC1)N1CCCC(c2nc3ccccc3[nH]2)C1 (centres unmarked) [Compound 52, (3-(1H-benzo[d]imidazol-2-yl)piperidin-1-yl)(piperidin-3-yl)methanone]",> 1
4,"C[C@H](N)C(=O)N1CCCC(c2nc3ccccc3[nH]2)C1 (stereo partly drawn) [Compound 53, (2S)-1-(3-(1H-benzo[d]imidazol-2-yl)piperidin-1-yl)-2-aminopropan-1-one]",> 1
5,"O=C([C@H]1CCCN1)N1CCCC(c2nc3ccccc3[nH]2)C1 (stereo partly drawn) [Compound 54, (3-(1H-benzo[d]imidazol-2-yl)piperidin-1-yl)((R)-pyrrolidin-2-yl)methanone]",> 1
6,"O=C(C1CNC1)N1CCCC(c2nc3ccccc3[nH]2)C1 (centres unmarked) [Compound 55, (3-(1H-benzo[d]imidazol-2-yl)piperidin-1-yl)(azetidin-3-yl)methanone]",> 1
7,"CC(C)(C)[C@H](N)C(=O)N1CCCC(c2nc3ccccc3[nH]2)C1 (stereo partly drawn) [Compound 56, (2S)-1-(3-(1H-benzo[d]imidazol-2-yl)piperidin-1-yl)-2-amino-3,3-dimethylbutan-1-one]",> 1
8,"N[C@H]1CCC[C@@H]1C(=O)N1CCCC(c2nc3ccccc3[nH]2)C1 (stereo partly drawn) [Compound 57, (3-(1H-benzo[d]imidazol-2-yl)piperidin-1-yl)((1S,2S)-2-aminocyclopentyl)methanone]",> 1
9,"N[C@H](Cc1ccccc1)C(=O)N1CCCC(c2nc3ccccc3[nH]2)C1 (stereo partly drawn) [Compound 58, (2R)-1-(3-(1H-benzo[d]imidazol-2-yl)piperidin-1-yl)-2-amino-3-phenylpropan-1-one]",> 1
10,"NC1(C(=O)N2CCCC(c3nc4ccccc4[nH]3)C2)CCC1 (centres unmarked) [Compound 59, (3-(1H-benzo[d]imidazol-2-yl)piperidin-1-yl)(1-aminocyclobutyl)methanone]",> 1
11,"N[C@@H](CCl)C(=O)N1CCCC(c2nc3ccccc3[nH]2)C1 (stereo partly drawn) [Compound 60, (2R)-1-(3-(1H-benzo[d]imidazol-2-yl)piperidin-1-yl)-2-amino-3-chloropropan-1-one]",> 1
12,"N[C@H](C(=O)N1CCCC(c2nc3ccccc3[nH]2)C1)C1CCCCC1 (stereo partly drawn) [Compound 61, (2S)-1-(3-(1H-benzo[d]imidazol-2-yl)piperidin-1-yl)-2-amino-2-cyclohexylethanone]",> 1
13,"N[C@@H](Cc1ccccn1)C(=O)N1CCCC(c2nc3ccccc3[nH]2)C1 (stereo partly drawn) [Compound 62, (2S)-1-(3-(1H-benzo[d]imidazol-2-yl)piperidin-1-yl)-2-amino-3-(pyridin-2-yl)propan-1-one]",> 1
14,"NC1(C(=O)N2CCCC(c3nc4ccccc4[nH]3)C2)CC1 (centres unmarked) [Compound 63, (3-(1H-benzo[d]imidazol-2-yl)piperidin-1-yl)(1-aminocyclopropyl)methanone]",> 1
15,"CNC(Cc1ccccc1)C(=O)N1CCCC(c2nc3ccccc3[nH]2)C1 (centres unmarked) [Compound 64, 1-(3-(1H-benzo[d]imidazol-2-yl)piperidin-1-yl)-2-(methylamino)-3-phenylpropan-1-one]",> 1
16,"COCCCn1c(C2CCCN(C(=O)C[C@@H](N)c3ccccc3)C2)nc2ccccc21 (stereo partly drawn) [Compound 65, (3R)-3-amino-1-(3-(1-(3-methoxypropyl)-1H-benzo[d]imidazol-2-yl)piperidin-1-yl)-3-phenylpropan-1-one]",> 1
17,"COCCCn1c(C2CCCN(C(=O)C[C@H](N)c3ccccc3)C2)nc2ccccc21 (stereo partly drawn) [Compound 66, (3S)-3-amino-1-(3-(1-(3-methoxypropyl)-1H-benzo[d]imidazol-2-yl)piperidin-1-yl)-3-phenylpropan-1-one]",> 1
